Assay [1] deals with T1, COX-2 (Homo sapiens, UniProt P35354).
T1 sequence (P35354 18-604): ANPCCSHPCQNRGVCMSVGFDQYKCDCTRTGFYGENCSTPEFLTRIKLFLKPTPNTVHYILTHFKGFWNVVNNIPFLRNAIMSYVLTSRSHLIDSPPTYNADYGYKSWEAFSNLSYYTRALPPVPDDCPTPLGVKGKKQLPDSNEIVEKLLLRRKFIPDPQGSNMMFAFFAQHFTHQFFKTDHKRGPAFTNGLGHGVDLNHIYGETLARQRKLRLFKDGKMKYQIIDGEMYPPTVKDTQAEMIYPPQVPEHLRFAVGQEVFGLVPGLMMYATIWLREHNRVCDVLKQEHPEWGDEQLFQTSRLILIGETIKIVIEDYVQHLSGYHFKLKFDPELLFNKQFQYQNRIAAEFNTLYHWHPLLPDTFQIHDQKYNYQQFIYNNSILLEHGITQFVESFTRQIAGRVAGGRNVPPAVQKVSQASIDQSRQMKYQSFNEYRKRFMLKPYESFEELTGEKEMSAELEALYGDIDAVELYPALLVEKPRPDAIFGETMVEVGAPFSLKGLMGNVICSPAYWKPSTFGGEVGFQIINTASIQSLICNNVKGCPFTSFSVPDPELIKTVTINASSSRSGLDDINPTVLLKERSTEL
Nature of the assay: Human COX-2 enzyme activity (COX Inhibitor Screening Assay, prostaglandin EIA). The class given is biochemical. The arrangement: purchased Cayman Chemical. The settings on record: test compound at 10 μM. Here is the method: The human COX-1 and COX-2 enzyme activities and the measurement of the prostaglandin products synthesized were performed using the COX Inhibitor Screening Assay (Cayman Chemical, Ann Arbor, Mich.), which also contained the Prostaglandin Screening EIA Kit, used for prostaglandin quantification). The test compounds were dissolved at 50 times the highest final reaction concentration in DMSO or any other suitable solvent as stock solutions. These stock solutions were then diluted in the same solvent. Eight glass test tubes (13×100 mm) were placed in a 25° C. water bath. To each test tube was added 950 μL of reaction buffer (0.1 M Tris-HCl, pH 8.0, containing 5 mM EDTA, and 2 mM phenol), 10 μL of 100 µM heme solution, and 10 μL (5 units) of either human COX-1 or COX-2 enzyme and the resulting mixture was incubated for 2 minutes. Twenty μL of the solvent was added to one tube (100% initial activity or solvent control) and 20 μL of each dilution of the test compound was added to one tube each. Each tube was vortexed immediately after the addition. The enzyme was incubated with the inhibitor for 20 minutes at 25° C. The enzymatic reaction was then initiated by the addition of 10 μL of freshly prepared 10 mM arachidonic acid (neutralized with KOH), vortexed and then incubated for 2 minutes (or, in some cases as indicated, 30 seconds) at 37° C. The reaction was terminated by the addition of 50 μL of 1 M HCl, vortexed and placed at room temperature. One hundred μL of a saturated stannous chloride solution (50 mg/mL of 0.1 M HCl) was added and the reaction mixture was allowed to stand at room temperature for at least 5 minutes.
The prostaglandins (PG) produced in the reactions were assayed, after a 2,000-fold dilution, using the Prostaglandin Screening EIA Kit (Cayman Chemical, Ann Arbor, Mich.). The assay contains an antibody with broad specificity for all the prostaglandin families (PGF, PGE, PGD, and thromboxane B-type) synthesized in the COX-1/COX-2 reactions. The synthesized prostaglandin competes with a PG-tagged acetylcholine esterase tracer for binding to the PG antibody. Binding of synthesized PG lowers the colorimetric development of the Ellman's Reagent (computed as %B/B0). The actual amount of synthesized PG was interpolated from a standard curve using known amounts of supplied prostaglandin E2 (PGE2) (PGE2 concentration vs. %B/B0). The data generated were the mean±standard deviation of triplicate wells in the EIA for a single reaction at a given inhibitor concentration.

Assay [2] addresses T1, COX-2. The assay is described as follows: COX-2 enzyme activity in human whole blood (LPS induced, thromboxane B2 EIA). Format: cell-based. More on the design: Human blood (≈50 mL) from male or female donors who had not received any aspirin or NSAIDs for 14 days; endogenous in cells; host or cells: human whole blood from donors, LPS-induced. The settings on record: test compound at 10 μM.

Structures are written as SMILES.

With `CS(=O)(=O)c1ccc(-c2cc3c(cc2Cc2cccnc2)OCO3)cc1` [Example 6c, 4-(Methylsulfonyl)-1-(6-(3-pyridylmethyl)(2H-benzo(3,4-d)1,3-dioxolan-5-yl))benzene], the “COX-2 Inhibition (% at 10 μM)” value on COX-2 [1] amounted to 65%; on COX-2 [2], 10%.

On to `CS(=O)(=O)c1ccc(-c2cc3c(cc2C(=O)c2ccccc2)OCO3)cc1` [Example 3d, 6-(4-(Methylsulfonyl)phenyl)(2H-benzo(d)1,3-dioxolan-5-yl) phenyl ketone], for which the “COX-2 Inhibition (% at 10 μM)” value is on record as 90% at COX-2 [1] and 60% at COX-2 [2].

With `CS(=O)(=O)c1ccc(-c2cc3c(cc2CC2CCCCC2)OCO3)cc1` [Example 1e, 1-(6-(Cyclohexylmethyl)(2-H-benzo(3,4-d)1,3-dioxolen-5-yl))-4-(methylsulfonyl) benzene], the entries for the “COX-2 Inhibition (% at 10 μM)” value on COX-2 [1] and at COX-2 [2] were 100% and 90%, respectively.

Regarding `CS(=O)(=O)c1ccc(-c2cc3c(cc2C=C2CCCC2)OCO3)cc1` [Example 10a, 4-(6-(Cyclopentylidenemethyl)(2H-benzo(3,4-d)1,3-dioxolan-5-yl))-1-(methylsulfonyl)benzene], the “COX-2 Inhibition (% at 10 μM)” value on COX-2 [1] is 100%; at COX-2 [2], 90%.

For the compound `CS(=O)(=O)c1ccc(-c2cc3c(cc2Cc2cc(F)cc(F)c2)OCO3)cc1` [Example 15c, 5-(1-(3′,5′-Difluorophenyl)methyl)-1,2-methylenedioxy-4-(4-methylsulfonylphenyl)benzene], the entries for the “COX-2 Inhibition (% at 10 μM)” value on COX-2 [1] and at COX-2 [2] were 90% and 85%, respectively.

Consider `CS(=O)(=O)c1ccc(-c2cc3c(cc2CN2CCCCC2=O)OCO3)cc1` [Example 9c], for which the “COX-2 Inhibition (% at 10 μM)” value is reported as 90% on COX-2 [1] and 30% at COX-2 [2].
